From PMC11945079, “Gadolinium Complex with Tris-Hydroxypyridinone as an Input for New Imaging Probes: Thermodynamic Stability, Molecular Modeling and Biodistribution” (Molecules, 2025)
Like-named read-outs stand apart in the source and are kept apart here.

Tests used:
[1] = cited from earlier work; for pGd: pH 7.4
[2] = Literature Gd(III) complex stability constants and pGd of comparison ligands; assay type: physicochemical; details: pH = 7, CL = 10^−5 M, CL/CGd = 10, from constants in water
[3] = Potentiometric titration of the 1:1 Gd/L system: stability constants of the Gd(III) complexes, pGd, species distribution; assay type: physicochemical
Experimental: (§1) All the studies were performed by potentiometric titrations of the ligand alone or in the presence of a 1:1 Gd/L stoichiometric ratio (Figure 1), which allowed for the determination of the protonation constants of KEMPPr(3,4-HP)3, as well as the stability constants of the formed Gd(III) complexes, from the best fitting of the experimental curves with the Hyperquad program (Table 1). Other Gd-to-ligand molar ratios were not considered in the present study, because it was admitted that species with a 1:2 stoichiometric ratio are present only at quite low concentrations for pH ca 7 [10].
Analysis of the potentiometric titration curves (Figure 1), namely those obtained for the Gd(III)/KEMPPr(3,4-HP)3 system under 1:1 (Gd/L) stoichiometry, evidences a change in the deprotonation profile of the ligand due to its coordination to Gd (III). Since some precipitation was detected above pH = 6, the corresponding experimental points were not used in the calculations to obtain the Gd (III) complexation model. The obtained Gd(III) complexation model presents some similarities to that previously found for H3L2 (see Table 1), firstly involving the formation of a bis-chelated GdH4L^4+ species, a GdH2L^2+ tetra-chelated complex, and afterwards the formation of a neutral hexa-coordinated GdL species. […] Concerning the Gd(III)/H3L2 system (in water, CL = CGd = 3.2 × 10^−4 M), the Gd(III) complexation also begins at pH ca 2, and the GdL species forms at pH ca 3.7 and becomes dominant at pH 4.5 [11]. For the Gd (III)/NTP (PrHP)3 system (in water), the GdL species is not involved in the proposed model.
(§2) The compound KEMPPr(3,4-HP)3 was synthesized according to the previously published procedure. The GdCl3 stock solution (9.8 × 10^−3 M) was prepared from the gadolinium salt in HCl 0.1 M medium to avoid hydrolysis, and standardized by inductively coupled plasma emission (ICP). The 0.1 M HCl solution used in the calibration of the glass electrode was obtained from a Titrisol ampoule (Merck, Darmstadt, Germany). The precise amount of HCl in the Gd(III) solution was determined by the standard-addition method using 0.1 M HCl (Titrisol). The titrant solution used in the potentiometric titrations was obtained from a carbonate-free 0.1 M KOH commercial ampoule (Titrisol) and standardized by titration with potassium hydrogen phthalate, and rejected whenever the percentage of carbonate (Gran’s method) was higher than 1% of the total amount of base. The potentiometric studies were performed with an automated potentiometric apparatus containing a Crison micropH 2002 millivoltimeter, a Crison microBu 2031 burette (Crison Instruments, Barcelona, Spain) and a Haake thermostatic bath (Haake Technik GmbH, Vreden, Germany, T = 25.0 ± 0.1 °C), controlled by the PASAT program. The glass and Ag/AgCl reference electrodes were previously conditioned in different DMSO/water mixtures of an increasing DMSO % composition (until 50%) and the response of the glass electrode was measured through the determination of the Nernst parameters by Gran’s method, obtained from strong acid–strong base (HCl/KOH) calibrations.
Potentiometric titrations of compound KEMPPr(3,4-HP)3, in the absence or presence of Gd(III), were performed in 50% (w/w) DMSO/water medium at an ionic strength (I) of 0.1 M KCl, T = 25.0 ± 0.1 °C, using 0.1 M KOH titrant. Each titration was repeated three times, for which the total volume was 20 mL, the total concentration of ligand (CL) was 3.2 × 10^−4 M and the Gd^3+/KEMPPr(3,4-HP)3 molar ratios were 0:1 and 1:1.
The stepwise protonation constants, Ki = [HiL]/[Hi−1L][H] of the ligand, and the global stability constants of the Gd(III) complex, β (GdmHhL) = [GdmHhLl]/[Gd]^m[H]^h[L]^l, were calculated by fitting the potentiometric data with the Hyperquad 2003 software. […]

[4] = Potentiometric titration of the ligand alone: protonation constants and species distribution; assay type: physicochemical
Experimental: as §1
as §2, with “calibrations. […]” for “calibrations.”
The stepwise protonation constants, Ki = [HiL]/[Hi−1L][H] of the ligand, and the global stability constants of the Gd(III) complex, β (GdmHhL) = [GdmHhLl]/[Gd]^m[H]^h[L]^l, were calculated by fitting the potentiometric data with the Hyperquad 2003 software. The gadolinium hydrolysis model and ionic product of water (Kw) were determined under the same experimental conditions (50% (w/w) DMSO/water medium, I = 0.1 M KCl, T = 25.0 ± 0.1 °C) and the values obtained for the stability constants (log β (GdH−2) = −15.17, log β (GdH−3) = −24.06) were included in the equilibrium model as well as the value of Kw (10^−14.95). […]

[5] = in water; cited from earlier work
[6] = 50% w/w DMSO/water, CL = 3.2 × 10^−4 M, 1:1
[7] = 50% w/w DMSO/water, T = 25.0 ± 0.1 °C, I = 0.1 M KCl
[8] = physiological pH (7.4), 50% (w/w) DMSO/water
[9] = in water, CL = CGd = 3.2 × 10^−4 M

Cc1c(O)c(=O)ccn1CCCNC(=O)CCN(CCC(=O)NCCCn1ccc(=O)c(O)c1C)CCC(=O)NCCCn1ccc(=O)c(O)c1C [NTP(PrHP)3]
log β (GdmHhLl), (m,h,l) = (1,1,1) (log KGdHL) ([1]; in water): 26.35 | log β (GdmHhLl), (m,h,l) = (1,2,1) ([1]; in water): 31.16 | log β (GdmHhLl), (m,h,l) = (1,3,1) ([1]; in water): 35.69 | log β (GdmHhLl), (m,h,l) = (1,3,2) ([1]; in water): 52.3 | log β (GdmHhLl), (m,h,l) = (1,4,1) ([1]; in water): 39.46 | log β (GdmHhLl), (m,h,l) = (1,5,1) ([1]; in water): 42.8 | log β (GdmHhLl), (m,h,l) = (1,5,2) ([1]; in water): 65.3 | pGd (−log [Gd(III)]) [2]: 12.3

Cc1c(O)c(=O)ccn1CCCNC(=O)C1(C)CC(C)(C(=O)NCCCn2ccc(=O)c(O)c2C)CC(C)(C(=O)NCCCn2ccc(=O)c(O)c2C)C1 (centres unmarked) [KEMPPr(3,4-HP)3]
pH at which Gd(III) complexation begins [3, 6]: ~2 | pH at which the GdL complex becomes prevalent [3, 6]: 4.8 | pH at which the neutral GdL complex begins to form [3, 6]: ~3.5 | log β (GdmHhLl), (m,h,l) = (1,0,1) (log β GdL) [3, 7]: 26.59(8) | log β (GdmHhLl), (m,h,l) = (1,1,1) [3, 7]: 31.30(4) | log β (GdmHhLl), (m,h,l) = (1,2,1) [3, 7]: 35.17(7) | log β (GdmHhLl), (m,h,l) = (1,4,1) [3, 7]: 41.35(8) | log β (GdmHhLl), (m,h,l) = (1,0,1) (log β GdL) ([3]; 50% w/w DMSO/water, T = 25.0 ± 0.1 °C, I = 0.1 M KCl, listed as H3L): 26.59 | pGd (−log [Gd(III)]) ([3]; pH = 6, CL = 10^−5 M, CL/CGd = 10, 50% w/w DMSO/water): 13.2 | difference between log K2 and log K3 ([4]; 50% w/w DMSO/water): 1.1 | composition of the solution: H3L species [4, 8]: 99.95% | composition of the solution: monocharged H4L^+ species [4, 8]: 0.05% | pH range of predominance of the neutral H3L species ([4]; species distribution, CL = 3.2 × 10^−4 M, 50% (w/w) DMSO/water): 3.4–9.9

O=C(O)CN(CCN(CC(=O)O)CC(=O)O)CCN(CC(=O)O)CC(=O)O [DTPA, diethylenetriamine penta-acetic acid]
pGd [1]: 19.1

O=C(O)CN1CCN(CC(=O)O)CCN(CC(=O)O)CCN(CC(=O)O)CC1 [DOTA, 1,4,7,10-tetraazacyclododecane N,N′,N″,N‴-tetra-acetic acid]
pGd [1]: 20.4

Cc1c(O)c(=O)ccn1CCCNC(=O)CCC(CCC(=O)NCCCn1ccc(=O)c(O)c1C)(CCC(=O)NCCCn1ccc(=O)c(O)c1C)[N+](=O)[O-] [H3L2]
difference between log K4 and log K5 [5]: 1.15 | pH at which Gd(III) complexation begins [1, 9]: ~2 | pH at which the GdL species becomes dominant [1, 9]: 4.5 | pH at which the GdL species forms [1, 9]: ~3.7 | log β (GdmHhLl), (m,h,l) = (1,0,1) (log KGdL) ([1]; in water): 21.22(5) | log β (GdmHhLl), (m,h,l) = (1,2,1) ([1]; in water): 30.03(6) | log β (GdmHhLl), (m,h,l) = (1,4,1) ([1]; in water): 37.74(4) | pGd (−log [Gd(III)]) ([1]; pH = 7, CL = 10^−5 M, CL/CGd = 10, in water): 14.3

Cn1ccc(C(=O)NCCN(CCNC(=O)c2ccn(C)c(=O)c2O)CCNC(=O)c2ccn(C)c(=O)c2O)c(O)c1=O [TREN-1-Me-3,2-HOPO]
log KGdL (thermodynamic stability of the Gd(III) complex) [1]: 19.2
